# Assays:
# [1] = biological target: MELK (Homo sapiens, UniProt Q14680); experiment: Kinase assay: MELK activity, phosphorylation of FITC-labeled histone H3 peptide measured by IMAP fluorescence polarization; format: biochemical; conditions: read-out: IC50 (μM) (kinase assay)
# Method in brief: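 Fluorescence polarization was measured 0.5 h (room temperature) after quenching with threefold volume of progressive binding solution. Test compounds from 12.5 mM DMSO stocks were assayed at 1% DMSO.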
# [2] = test system: T47D cells; experiment: Cell-based assay: anti-proliferative activity, Cell Counting Kit-8, 72 hours (T47D); conditions: Homo sapiens, T47D, 72 h
# Method in brief: (§1)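 Proliferation read with Cell Counting Kit-8 after 72 hours of inhibitor treatment, from seeding of 2,000–3,000 cells/well. Lines: T47D, A549, BT-549; HT-1197, lacking MELK by western blot, served as negative control. IC50 derived.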
# [3] = test system: A549 cells; experiment: Cell-based assay: anti-proliferative activity, Cell Counting Kit-8, 72 hours (A549); conditions: Homo sapiens, A549, 72 h, 72 hours
# Method in brief: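 Cell Counting Kit-8 read-out of A549 growth after 72 hours of inhibitor exposure, cells plated in 96-well format. Values reported as IC50.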
# [4] = test system: HT-1197 cells; experiment: Cell-based assay: anti-proliferative activity, Cell Counting Kit-8, 72 hours (HT-1197, negative control without MELK expression); conditions: Homo sapiens, HT1197, 72 h, 72 hours
# Method in brief: as §1
# [5] = test system: DU4475 cells; experiment: Cell-based assay: anti-proliferative activity, Cell Counting Kit-8, 72 hours (DU4475); conditions: Homo sapiens, DU-4475, 72 h
# [6] = test system: DU4475 cells; experiment: as above; conditions: Homo sapiens, DU-4475, 72 h; remark: listed apart in the source
# [7] = HT1197 cells (negative control)
# [8] = HT1197 cells (negative control, no MELK expression)
# Sequence of MELK (Q14680 whole entry, looked up): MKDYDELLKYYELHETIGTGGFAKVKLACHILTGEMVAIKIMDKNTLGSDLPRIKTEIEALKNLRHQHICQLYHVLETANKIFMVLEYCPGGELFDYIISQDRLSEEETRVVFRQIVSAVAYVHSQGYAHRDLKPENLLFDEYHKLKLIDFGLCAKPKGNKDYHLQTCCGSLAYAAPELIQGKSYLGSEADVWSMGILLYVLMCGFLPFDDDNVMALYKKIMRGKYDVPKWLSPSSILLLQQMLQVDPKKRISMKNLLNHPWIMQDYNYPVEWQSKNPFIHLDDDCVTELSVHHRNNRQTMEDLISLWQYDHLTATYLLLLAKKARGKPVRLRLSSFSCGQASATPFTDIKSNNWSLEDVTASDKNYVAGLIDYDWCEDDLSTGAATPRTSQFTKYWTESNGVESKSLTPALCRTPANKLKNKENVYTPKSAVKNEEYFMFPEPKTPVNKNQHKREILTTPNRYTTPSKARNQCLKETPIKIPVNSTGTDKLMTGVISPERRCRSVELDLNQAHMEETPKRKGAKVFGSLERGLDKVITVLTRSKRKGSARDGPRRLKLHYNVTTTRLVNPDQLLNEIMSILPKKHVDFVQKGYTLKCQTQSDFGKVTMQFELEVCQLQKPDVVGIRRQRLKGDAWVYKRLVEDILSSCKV
SMILES,IC50 [1],IC50 [2],IC50 [3],"IC50 [4, 7]",IC50 [5],"IC50 [4, 8]",IC50 [6]
CCCC(=O)c1cnc2ccc(-c3cc(Cl)c(O)c(OC)c3)cc2c1N[C@H]1CC[C@H](CN(C)C)CC1 [Example 607],0.0051 µM,0.24 µM,0.48 µM,3.4 µM,0.24 µM,–,–
"CC(C)C(=O)c1cnc2ccc(-c3cc(Cl)c(O)c(Cl)c3)cc2c1N[C@H]1CC[C@H](CN(C)C)CC1 [Example 608, 1-(6-(3,5-dichloro-4-hydroxyphenyl)-4-((1R,4R)-4-((dimethylamino)methyl)cyclohexylamino)quinolin-3-yl)-2-methylpropan-1-one]",0.0022 µM,0.15 µM,0.25 µM,0.46 µM,0.072 µM,–,–
"COc1cc(-c2ccc3ncc(C(=O)C4CC4)c(Nc4ccc(NC5CCCNC5)nc4)c3c2)cc(Cl)c1O (stereo not drawn) [Example 609, (6-(3-chloro-4-hydroxy-5-methoxyphenyl)-4-(6-(piperidin-3-ylamino)pyridin-3-ylamino)quinolin-3-yl)(cyclopropyl)methanone]",0.0025 µM,0.22 µM,0.68 µM,3.9 µM,0.34 µM,–,–
"O=C(c1cnc2ccc(-c3cc(Cl)c(O)c(Cl)c3)cc2c1Nc1ccc(NC2CCCNC2)nc1)C1CC1 (stereo not drawn) [Example 610, cyclopropyl(6-(3,5-dichloro-4-hydroxyphenyl)-4-(6-(piperidin-3-ylamino)pyridine-3-ylamino)quinolin-3-yl)methanone]",0.0017 µM,0.22 µM,0.39 µM,10 µM,0.073 µM,–,–
"O=C(c1cnc2ccc(-c3cc(F)c(O)c(Cl)c3)cc2c1Nc1ccc(NC2CCCNC2)nc1)C1CC1 (stereo not drawn) [Example 611, (6-(3-chloro-5-fluoro-4-hydroxyphenyl)-4-(6-(piperidin-3-ylamino)pyridin-3-ylamino)quinolin-3-yl)(cyclopropyl)methanone]",0.0023 µM,0.13 µM,0.57 µM,10 µM,0.39 µM,–,–
"COc1cc(-c2ccc3ncc(C(=O)C4CC4)c(Nc4ccc(CCN(C)C)cc4)c3c2)cc(Cl)c1O [Example 612, (6-(3-chloro-4-hydroxy-5-methoxyphenyl)-4-(4-(2-(dimethylamino)ethyl)phenylamino)quinolin-3-yl)(cyclopropyl)methanone]",0.0055 µM,0.84 µM,0.72 µM,4.7 µM,0.4 µM,–,–
"CN(C)CCc1ccc(Nc2c(C(=O)C3CC3)cnc3ccc(-c4cc(Cl)c(O)c(Cl)c4)cc23)cc1 [Example 613, Cyclopropyl(6-(3,5-dichloro-4-hydroxyphenyl)-4-(4-(2-(dimethylamino)ethyl)phenylamino)quinolin-3-yl)methanone]",0.0022 µM,0.13 µM,0.075 µM,1 µM,0.028 µM,–,–
"CN(C)CCc1ccc(Nc2c(C(=O)C3CC3)cnc3ccc(-c4cc(F)c(O)c(Cl)c4)cc23)cc1 [Example 615, (6-(3-chloro-5-fluoro-4-hydroxyphenyl)-4-(4-(2-(dimethylamino)ethyl)phenylamino)quinolin-3-yl)(cyclopropyl)methanone]",0.0082 µM,0.17 µM,0.086 µM,1.4 µM,0.042 µM,–,–
"COc1cc(-c2ccc3ncc(C(C)=O)c(Nc4cnc(N5CCNCC5)nc4)c3c2)cc(Cl)c1O [Example 616, 1-(6-(3-chloro-4-hydroxy-5-methoxyphenyl)-4-(2-(piperazin-1-yl)pyrimidin-5-ylamino)quinolin-3-yl)ethanone]",0.0044 µM,0.22 µM,0.66 µM,1.8 µM,0.5 µM,–,–
"CCCC(=O)c1cnc2ccc(-c3cc(Cl)c(O)c(OC)c3)cc2c1Nc1ccc(N2CCNCC2)nc1 [Example 617, 1-(6-(3-chloro-4-hydroxy-5-methoxyphenyl)-4-(6-(piperazin-1-yl)pyridin-3-ylamino)quinolin-3-yl)butan-1-one]",0.0042 µM,0.33 µM,0.19 µM,1.7 µM,0.32 µM,–,–
CC(C)C(=O)c1cnc2ccc(-c3cc(F)c(O)c(Cl)c3)cc2c1N[C@H]1CC[C@H](CN(C)C)CC1 [Example 620],0.0066 µM,0.16 µM,0.18 µM,0.17 µM,0.095 µM,–,–
"O=C(c1cnc2ccc(-c3cc(F)c(O)c(Cl)c3)cc2c1N[C@H]1C[C@H]2CC[C@@H](C1)N2)C1CC1 [Example 621, (4-((1R,3r,5S)-8-azabicyclo[3.2.1]octan-3-ylamino)-6-(3-chloro-5-fluoro-4-hydroxyphenyl)quinolin-3-yl)(cyclopropyl)methanone]",0.01 µM,0.24 µM,0.91 µM,3.9 µM,0.11 µM,–,–
"COc1cc(-c2ccc3ncc(C(=O)C4CC4)c(Nc4cccc(CN(C)C)c4)c3c2)cc(Cl)c1O [Example 622, (6-(3-chloro-4-hydroxy-5-methoxyphenyl)-4-(3-((dimethylamino)methyl)phenylamino)quinolin-3-yl)(cyclopropyl)methanone]",0.0037 µM,1.1 µM,0.43 µM,5.5 µM,0.32 µM,–,–
"CCCC(=O)c1cnc2ccc(-c3cc(F)c(O)c(Cl)c3)cc2c1Nc1ccc(N2CCNCC2)nc1 [Example 623, 1-{6-(3-Chloro-5-fluoro-4-hydroxyphenyl)-4-[6-(piperazin-1-yl)pyridin-3-ylamino]quinolin-3-yl}butan-1-one]",0.011 µM,0.085 µM,0.2 µM,2 µM,0.1 µM,–,–
"CN(C)Cc1cccc(Nc2c(C(=O)C3CC3)cnc3ccc(-c4cc(Cl)c(O)c(Cl)c4)cc23)c1 [Example 624, cyclopropyl(6-(3,5-dichloro-4-hydroxyphenyl)-4-(3-((dimethylamino)methyl)phenylamino)quinolin-3-yl)methanone]",0.0016 µM,0.55 µM,0.089 µM,3 µM,0.043 µM,–,–
"NC1CCCN(c2ncc(Nc3c(C(=O)C4CC4)cnc4ccc(-c5cc(F)c(O)c(Cl)c5)cc34)cn2)C1 (stereo not drawn) [Example 626, (4-(2-(3-aminopiperidin-1-yl)pyrimidin-5-ylamino)-6-(3-chloro-5-fluoro-4-hydroxyphenyl)quinolin-3-yl)(cyclopropyl)methanone]",0.0011 µM,0.0051 µM,0.0073 µM,0.05 µM,0.0048 µM,–,–
"COC1CCN(C[C@H]2CC[C@H](Nc3c(C(=O)C4CC4)cnc4ccc(-c5cc(F)c(O)c(Cl)c5)cc34)CC2)C1 (stereo partly drawn) [Example 627, (6-(3-chloro-5-fluoro-4-hydroxyphenyl)-4-((trans-4-((3-methoxypyrrolidin-1-yl)methyl)cyclohexyl)amino)quinolin-3-yl)(cyclopropyl)methanone]",0.024 µM,0.15 µM,0.11 µM,0.55 µM,0.083 µM,–,–
"NC1CCCN(c2ncc(Nc3c(C(=O)C4CC4)cnc4ccc(-c5cc(Cl)c(O)c(Cl)c5)cc34)cn2)C1 (stereo not drawn) [Example 628, (4-(2-(3-aminopiperidin-1-yl)pyrimidin-5-ylamino)-6-(3,5-dichloro-4-hydroxyphenyl)quinolin-3-yl)(cyclopropyl)methanone]",0.0015 µM,0.0069 µM,0.019 µM,0.33 µM,0.0056 µM,–,–
"CN(C)Cc1cccc(Nc2c(C(=O)C3CC3)cnc3ccc(-c4cc(F)c(O)c(Cl)c4)cc23)c1 [Example 629, (6-(3-chloro-5-fluoro-4-hydroxyphenyl)-4-(3-((dimethylamino)methyl)phenylamino)quinolin-3-yl)(cyclopropyl)methanone]",0.0051 µM,0.58 µM,0.12 µM,3.3 µM,0.069 µM,–,–
"COc1cc(-c2ccc3ncc(C(=O)C4CC4)c(Nc4ccc(NCCN(C)C)nc4)c3c2)cc(Cl)c1O [Example 746, (6-(3-chloro-4-hydroxy-5-methoxyphenyl)-4-(6-(2-(dimethylamino)ethylamino)pyridin-3-ylamino)quinolin-3-yl)(cyclopropyl)methanone]",0.0029 µM,0.23 µM,0.18 µM,–,–,6.2 µM,0.11 µM
"CN(C)CCNc1ccc(Nc2c(C(=O)C3CC3)cnc3ccc(-c4cc(Cl)c(O)c(Cl)c4)cc23)cn1 [Example 747, cyclopropyl(6-(3,5-dichloro-4-hydroxyphenyl)-4-(6-(2-(dimethylamino)ethylamino)pyridin-3-ylamino)quinolin-3-yl)methanone]",0.0043 µM,0.16 µM,0.091 µM,–,–,2.6 µM,0.043 µM
COc1cc(-c2ccc3ncc(C(C)=O)c(N[C@H]4CC[C@H](CN5CCC(O)C5)CC4)c3c2)cc(Cl)c1O (stereo partly drawn) [Example 749],0.0017 µM,0.12 µM,0.22 µM,–,–,6.4 µM,0.21 µM
"O=C(c1cnc2ccc(-c3cc(Cl)c(O)c(Cl)c3)cc2c1N1CCC(CCN2CCCC2)CC1)C1CC1 [Example 756, cyclopropyl(6-(3,5-dichloro-4-hydroxyphenyl)-4-(4-(2-(pyrrolidin-1-yl)ethyl)piperidin-1-yl)quinolin-3-yl)methanone]",–,0.5 µM,0.54 µM,–,–,10 µM,0.27 µM
